Reference: publication PMC11153716 (Frontiers in Pharmacology, 2024)
One block for each molecule: values may come before it.

How the values were obtained:
Type in all cases: cell-based
[1] = molecular target: T1, α1β3γ2L GABAARs (Homo sapiens, UniProt P14867+P18507+P28472); assay: whole-cell patch clamp, inhibition of GABA-induced current; settings: -50 mV, pH 7.4, 22-25 °C
T1 construct: gene GABRA1; full-length wild-type subunits co-transfected 1:1:1 (plasmid ratio) in HEK293T cells; EGFP from a separate EF1a promoter on the GABRG2 plasmid; with Gamma-aminobutyric acid receptor subunit gamma-2

[2] = molecular target: T1, α1β3γ2L GABAARs; assay: whole-cell patch clamp, potentiation of GABA-induced current
[3] = molecular target: T1, α1β3γ2L GABAARs; assay: whole-cell patch clamp, inhibition of GABA-induced current; settings: -50 mV, pH 7.4, 22-25 °C; remark: listed apart in the source
[4] = molecular target: T1, α1β3γ2L GABAARs; assay: as above; settings: 100 μM compound, 1 μM GABA, 15 s pre-treatment, -50 mV, pH 7.4, 22-25 °C

T1 sequence (P14867 28-456): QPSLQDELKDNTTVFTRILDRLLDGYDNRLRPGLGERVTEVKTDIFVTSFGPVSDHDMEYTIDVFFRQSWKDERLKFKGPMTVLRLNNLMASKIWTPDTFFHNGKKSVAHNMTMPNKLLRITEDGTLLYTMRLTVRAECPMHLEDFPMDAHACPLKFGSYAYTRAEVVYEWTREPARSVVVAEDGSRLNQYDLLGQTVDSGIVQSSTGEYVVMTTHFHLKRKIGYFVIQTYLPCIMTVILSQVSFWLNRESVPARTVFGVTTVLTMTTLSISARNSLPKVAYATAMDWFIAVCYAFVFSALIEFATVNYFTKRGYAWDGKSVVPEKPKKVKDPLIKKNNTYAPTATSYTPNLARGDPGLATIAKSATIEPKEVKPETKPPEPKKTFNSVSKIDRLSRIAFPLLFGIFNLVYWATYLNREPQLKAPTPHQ
T1 sequence (P28472 26-473): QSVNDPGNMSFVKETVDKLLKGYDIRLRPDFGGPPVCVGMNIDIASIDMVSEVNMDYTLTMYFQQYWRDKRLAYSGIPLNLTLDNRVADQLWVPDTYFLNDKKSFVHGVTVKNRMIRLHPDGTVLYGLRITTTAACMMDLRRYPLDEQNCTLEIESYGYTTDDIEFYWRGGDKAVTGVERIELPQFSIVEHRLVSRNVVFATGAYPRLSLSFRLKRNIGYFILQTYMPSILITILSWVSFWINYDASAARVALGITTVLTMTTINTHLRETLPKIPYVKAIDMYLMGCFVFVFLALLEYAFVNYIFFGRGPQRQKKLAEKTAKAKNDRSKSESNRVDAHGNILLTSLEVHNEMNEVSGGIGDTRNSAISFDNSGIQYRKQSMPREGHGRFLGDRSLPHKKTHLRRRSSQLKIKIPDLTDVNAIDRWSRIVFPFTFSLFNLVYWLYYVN
T1 sequence (P18507 40-475): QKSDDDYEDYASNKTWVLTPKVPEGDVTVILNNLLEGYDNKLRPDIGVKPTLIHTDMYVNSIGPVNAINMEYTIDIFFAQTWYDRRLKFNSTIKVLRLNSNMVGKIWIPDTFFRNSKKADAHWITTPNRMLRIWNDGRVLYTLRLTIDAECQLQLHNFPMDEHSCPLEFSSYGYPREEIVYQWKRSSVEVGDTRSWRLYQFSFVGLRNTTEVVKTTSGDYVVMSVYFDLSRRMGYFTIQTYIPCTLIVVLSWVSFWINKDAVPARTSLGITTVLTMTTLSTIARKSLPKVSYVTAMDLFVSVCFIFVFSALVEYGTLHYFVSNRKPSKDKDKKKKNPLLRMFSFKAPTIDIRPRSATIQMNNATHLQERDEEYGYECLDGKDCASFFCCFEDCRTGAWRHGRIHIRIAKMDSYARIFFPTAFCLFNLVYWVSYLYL

I/I0 at 300 μM [1]: 0.89 ± 0.02
SMILES: O=C(O)[C@H](O)Cc1ccc(O)c(O)c1 [Danshensu]

EC50 [2]: 46.9 ± 6.33 µM
SMILES: C=C1CC/C=C(\C)CC[C@@H]2[C@@H]1CC2(C)C [β-Caryophyllene]

I/I0 at 100 μM [3]: 0.63 ± 0.04
SMILES: O=C1c2c(O)cc(O)cc2O[C@H](c2cc(O)c(O)c(O)c2)[C@H]1O [Dihydromyricetin]

SMILES: CCOC1O[C@H](CO)[C@@H](O)[C@H](O)[C@H]1O (stereo partly shown) [Ethyl glucoside]
EC50 [2]: 37 ± 8.56 µM

SMILES: O=c1c(O)c(-c2ccc(O)cc2)oc2cc(O)cc(O)c12 [Kaempferol]
whole-cell patch clamp, inhibition of GABA-induced current [4]: kaempferol and corydaldine suppressed the GABA-induced current by more than half

SMILES: Cc1ccc([C@]2(C)CCCC2(C)C)cc1 [(+)-Cuparene]
EC50 [2]: 15.1 ± 5.94 µM

SMILES: COc1cc2c(cc1OC)C(=O)NCC2 [Corydaldine]
whole-cell patch clamp, inhibition of GABA-induced current [4]: kaempferol and corydaldine suppressed the GABA-induced current by more than half
